Literature values, collected in patent US10391087B2, “Combination of oxymetazoline and ipratropium in topical nasal application for the treatment of a cough” (priority 2015, dated 2019).
Where two headings read alike, the source gives them in different places. One block for each molecule: values may come before it.

Columns and labels:
[1] = tested on: nasal secretion (rhinorrhea)
[2] = biological target: T1, human α1A-adrenoceptors (Homo sapiens, UniProt P35348); conditions: heterologous cells expressing human α1A-adrenoceptors
T1 sequence (P35348 1-466): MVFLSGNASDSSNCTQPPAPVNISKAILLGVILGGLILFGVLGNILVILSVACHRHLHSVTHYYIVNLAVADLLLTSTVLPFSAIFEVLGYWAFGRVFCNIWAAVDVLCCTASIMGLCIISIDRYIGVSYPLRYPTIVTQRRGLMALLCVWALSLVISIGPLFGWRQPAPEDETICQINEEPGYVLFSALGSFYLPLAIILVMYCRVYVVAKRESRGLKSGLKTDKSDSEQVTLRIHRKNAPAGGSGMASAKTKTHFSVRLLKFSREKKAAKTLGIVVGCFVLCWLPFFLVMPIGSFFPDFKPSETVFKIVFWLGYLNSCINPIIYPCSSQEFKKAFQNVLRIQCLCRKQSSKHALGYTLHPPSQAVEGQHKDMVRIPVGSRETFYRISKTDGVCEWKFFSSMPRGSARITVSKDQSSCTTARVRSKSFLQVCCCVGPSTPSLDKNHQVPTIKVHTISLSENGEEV

[3] = tested on: α-1 and α-2 receptors; conditions: inhibited by α-1 antagonist prazosin, minimal inhibition by α-2 antagonist yohimbine
[4] = tested on: cardiac response of rabbit vagal electrical stimulation; conditions: rabbit heart
[5] = tested on: ileum guinea pigs nerve tissue; conditions: range 20 to 70% with increasing concentrations of noradrenaline

SMILES: Cc1cc(C(C)(C)C)cc(C)c1CC1=NCCN1 [xilometazoline]
rhinorrhea ([1]; 5 to 10 days after start of the infectious process, p<0.05): decreased rhinorrhea
nasal secretion compared with placebo ([1]; Eccles 2008, xilometazoline alone, p<0.05): decreased nasal secretion
rhinorrhea ([1]; another study, measured on day 1 of administration): increases

Ca2+ responses [2]: induce responses Ca^2+
contraction [3]: dose dependent contraction
SMILES: Cc1cc(C(C)(C)C)c(O)c(C)c1CC1=NCCN1 [oximetazoline, oxymetazoline]
cardiac response of vagal electrical stimulation [4]: significantly inhibited
blood pressure (large doses of 0.3%): significant increase in blood pressure
blood pressure (standard doses of 0.01 to 0.1%): no

SMILES: CC(C)[N+]1(C)[C@@H]2CC[C@H]1C[C@@H](OC(=O)C(CO)c1ccccc1)C2 (stereo partly shown) [ipratropium]
nasal discharge ([1]; four studies, ipratropium alone, intranasally): lower nasal discharge

SMILES: NC[C@H](O)c1ccc(O)c(O)c1 [Noradrenaline, noradrenaline]
reduction of acetilcoline discharge, average [5]: 56.8%
